Test results reported in PMC10733197, “Utilization of Rosuvastatin and Endogenous Biomarkers in Evaluating the Impact of Ritlecitinib on BCRP, OATP1B1, and OAT3 Transporter Activity” (Pharmaceutical Research, 2023).
“And” between values parts separate entries of the source, which are not always exact repeats. Equal entries are not always repeated.

How the values were obtained:
[1] = target: T1, OATP1B3 (Homo sapiens, UniProt Q9NPD5); assay: OATP1B3-mediated rosuvastatin uptake inhibition in transfected HEK293 cells; assay type: cell-based; settings: for IC50: hepatic OATP1B3, RSV 0.3–0.5 µM as substrate, 1—3 min, HEK293, mean ± SD, n = 3
T1 construct: expressed in transfected cells; host or cells: HEK293
T1 sequence (Q9NPD5 1-702): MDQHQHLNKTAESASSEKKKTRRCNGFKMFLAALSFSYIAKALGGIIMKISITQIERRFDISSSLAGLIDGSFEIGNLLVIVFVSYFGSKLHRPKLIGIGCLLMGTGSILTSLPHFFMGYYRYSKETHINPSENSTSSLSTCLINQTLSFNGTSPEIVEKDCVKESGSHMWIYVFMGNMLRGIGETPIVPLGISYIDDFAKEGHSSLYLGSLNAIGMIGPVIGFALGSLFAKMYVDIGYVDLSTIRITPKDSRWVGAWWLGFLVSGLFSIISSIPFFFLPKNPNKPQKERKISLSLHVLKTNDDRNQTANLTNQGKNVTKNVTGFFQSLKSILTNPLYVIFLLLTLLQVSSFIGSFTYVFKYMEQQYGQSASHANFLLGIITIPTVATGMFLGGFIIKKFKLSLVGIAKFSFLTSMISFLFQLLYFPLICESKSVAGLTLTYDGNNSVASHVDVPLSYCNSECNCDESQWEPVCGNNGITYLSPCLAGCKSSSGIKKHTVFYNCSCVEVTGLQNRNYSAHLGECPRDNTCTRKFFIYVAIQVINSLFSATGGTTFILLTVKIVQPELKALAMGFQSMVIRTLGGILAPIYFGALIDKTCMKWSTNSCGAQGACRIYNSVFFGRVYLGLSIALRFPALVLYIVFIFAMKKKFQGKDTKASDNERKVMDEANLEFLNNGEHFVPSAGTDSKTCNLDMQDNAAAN
Method: (§1) Sources of human embryonic kidney (HEK) 293 cells expressing individual transfected human solute carriers (SLC), test substrates, and cell culture reagents, as well as detailed cell culture methods, incubations, and sample processing, have been described previously. SLC included hepatic OATP1B1, OATP1B3, and renal OAT1 and OAT3. […] Likewise, the uptake of non-labeled rosuvastatin (Biosynth, San Diego, CA) at 0.3—0.5 µM was determined for OATP1B1 and OATP1B3 at 1—3 min, and CP-I (Frontier Specialty Chemicals, Logan, UT) at 0.1 µM was determined for OATP1B1 and OATP1B3 at 10 min [14].
(§2) In all cases, ritlecitinib (0.018 to 1000 µM) and metabolite M2 (0.018 to 300 µM) was tested over a wide range of final concentrations dissolved in dimethyl sulfoxide (the final concentration of dimethyl sulfoxide in the assays was 1% v/v). For each transporter, the IC50 was estimated using a four-parameter logistic equation (Eq. 1) using GraphPad Prism software (GraphPad Software Inc, La Jolla, CA).1 %UptakeActivity=Bottom+(Top-Bottom)/1+10^(LogIC50-inhib*HillSlope)
(§3) At the end of the uptake and inhibition experiment, cellular accumulation of ^3H-PAH and ^3H-E3S was determined using liquid scintillation counting as previously described. Rosuvastatin uptake was determined using a tandem high performance liquid chromatography (LC)-mass spectrometry (MS) assay.

[2] = target: T2, OATP1B1 (Homo sapiens, UniProt Q9Y6L6); assay: OATP1B1-mediated rosuvastatin uptake inhibition in transfected HEK293 cells; assay type: cell-based; settings: for IC50: hepatic OATP1B1, RSV 0.3–0.5 µM as substrate, 1—3 min, HEK293, mean ± SD, n = 3; for R-value: 1 + (Imax,inlet,u/IC50), cutoff 1.1 (FDA), 1.04 (EMA)
T2 construct: expressed in transfected cells; host or cells: HEK293
T2 sequence (Q9Y6L6 1-691): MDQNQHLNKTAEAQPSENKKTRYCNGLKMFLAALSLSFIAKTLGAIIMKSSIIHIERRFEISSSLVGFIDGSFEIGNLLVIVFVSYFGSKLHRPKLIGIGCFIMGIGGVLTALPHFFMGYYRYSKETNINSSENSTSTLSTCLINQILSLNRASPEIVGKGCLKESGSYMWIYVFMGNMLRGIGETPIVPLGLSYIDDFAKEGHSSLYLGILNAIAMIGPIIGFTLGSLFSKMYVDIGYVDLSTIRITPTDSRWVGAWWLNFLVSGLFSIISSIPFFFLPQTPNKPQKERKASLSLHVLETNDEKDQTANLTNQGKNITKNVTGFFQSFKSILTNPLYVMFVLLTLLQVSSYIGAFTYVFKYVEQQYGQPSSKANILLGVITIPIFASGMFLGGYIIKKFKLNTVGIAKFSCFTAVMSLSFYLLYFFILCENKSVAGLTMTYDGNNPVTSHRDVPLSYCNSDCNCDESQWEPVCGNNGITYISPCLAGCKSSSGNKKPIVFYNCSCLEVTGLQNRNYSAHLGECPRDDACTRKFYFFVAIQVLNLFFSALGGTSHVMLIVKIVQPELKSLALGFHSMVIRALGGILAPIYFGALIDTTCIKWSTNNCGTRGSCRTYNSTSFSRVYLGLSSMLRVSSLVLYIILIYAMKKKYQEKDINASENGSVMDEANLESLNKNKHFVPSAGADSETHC
Method: as §1, §2, §3

[3] = target: T3, OAT3 (Homo sapiens, UniProt Q8TCC7); assay: OAT3-mediated 3H-E3S uptake inhibition in transfected HEK293 cells; assay type: cell-based; settings: for Fraction Inhibited / Triggers Drug Interaction Cutoff / Cmax,u/IC50 ratio: OAT3; for Fraction Inhibited: Cmax,u/(Cmax,u + IC50) (Eq. 2); for Triggers Drug Interaction Cutoff: Cmax,u/IC50 cutoff 0.1 (FDA); for Triggers Drug Interaction Cutoff / Cmax,u/IC50 ratio: 0.02 (EMA); for Cmax,u/IC50 ratio: cutoff 0.1 (FDA), ritlecitinib 200 mg; for IC50: renal OAT3, E3S as substrate (0.1 µM per table footnote), 3 min, HEK293, mean ± SD, n = 3
T3 construct: expressed in transfected cells; host or cells: HEK293
T3 sequence (Q8TCC7 1-542): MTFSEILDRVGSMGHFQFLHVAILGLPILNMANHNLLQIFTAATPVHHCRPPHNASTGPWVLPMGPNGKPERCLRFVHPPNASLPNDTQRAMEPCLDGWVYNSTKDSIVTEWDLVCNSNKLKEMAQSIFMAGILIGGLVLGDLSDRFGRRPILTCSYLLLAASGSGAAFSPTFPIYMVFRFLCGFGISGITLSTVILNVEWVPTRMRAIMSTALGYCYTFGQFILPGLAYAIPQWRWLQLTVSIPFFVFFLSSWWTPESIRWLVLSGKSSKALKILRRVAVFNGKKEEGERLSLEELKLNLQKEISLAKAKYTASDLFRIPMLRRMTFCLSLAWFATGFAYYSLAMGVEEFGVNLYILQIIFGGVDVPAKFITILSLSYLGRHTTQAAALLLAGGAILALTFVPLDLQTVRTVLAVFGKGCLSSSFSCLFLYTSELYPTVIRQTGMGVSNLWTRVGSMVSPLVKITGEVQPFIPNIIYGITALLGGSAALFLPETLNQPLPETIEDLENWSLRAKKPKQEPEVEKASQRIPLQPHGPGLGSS
Method: as §1, §2, §3
Assumes no substrate-dependent shift in IC50 versus PDA.^1 Each OAT form was singularly transfected in human embryonic kidney 293 cells.

[4] = Inhibitor exposure estimates and PK inputs for static drug interaction risk assessment; settings: for Cmax,u: maximal free plasma concentration (Cmax × fu) at ritlecitinib 200 mg

| Triggers Drug Interaction Cutoff ([1]; OATP1B3 (RSV)) | IC50 [1] [µM] | Triggers Drug Interaction Cutoff ([2]; OATP1B1 (RSV)) | IC50 [2] [µM] | Fraction Inhibited [3] | Triggers Drug Interaction Cutoff [3] | Cmax,u/IC50 ratio [3] | IC50 [3] [µM] | Cmax,u [4] | Compound | also measured |
| --- | --- | --- | --- | --- | --- | --- | --- | --- | --- | --- |
| Yes | 8.4 ± 0.2 | Yes | 2 ± 0.03 | < 0.01 | No | < 0.01 | > 300 | 1.4 μM and 1.4^j μM | C[C@H]1CC[C@@H](Nc2ncnc3[nH]ccc23)CN1C(=O)CCSC[C@H](N)C(=O)O [M2] | Cmax,u/IC50 ratio ([1]; OATP1B3 (RSV), Cmax,u used for metabolite M2): 0.17; Fraction Inhibited ([1]; OATP1B3 (RSV), Cmax,u/(Cmax,u + IC50) for M2 (Eq. 3)): 0.1; Cmax,u/IC50 ratio ([2]; OATP1B1 (RSV), Cmax,u used for metabolite M2): 0.70; Fraction Inhibited ([2]; OATP1B1 (RSV), Cmax,u/(Cmax,u + IC50) for M2 (Eq. 3)): 0.4; % inhibition at the highest concentration tested ([3]; OAT3 (E3S), highest concentration 300 µM): 43% |
| No | 934 ± 59 | Yes | 312 ± 19 | 0.1 | Yes | 0.11 | 41 ± 3 | 4.7 µM | C=CC(=O)N1C[C@H](Nc2ncnc3[nH]ccc23)CC[C@@H]1C [Ritlecitinib, ritlecitinib] | R-value ([1]; OATP1B3 (RSV), 1 + (Imax,inlet,u/IC50), cutoff 1.1 (FDA), 1.04 (EMA)): 1.03; Fraction Inhibited ([1]; OATP1B3 (RSV), Imax,inlet,u/(Imax,inlet,u + IC50) (Eq. 1)): 0.03; Fraction Inhibited ([1]; OATP1B3 (RSV), Imax,inlet,u/(Imax,inlet,u + IC50) (Eq. 1), listed as ritlecitinib): ≤ 0.1; R-value ([2]; OATP1B1 (RSV)): 1.10; R-value ([2]; OATP1B1 (RSV), listed as ritlecitinib): 1.1; Fraction Inhibited ([2]; OATP1B1 (RSV), Imax,inlet,u/(Imax,inlet,u + IC50) (Eq. 1)): 0.09; Fraction Inhibited ([2]; OATP1B1 (RSV), Imax,inlet,u/(Imax,inlet,u + IC50) (Eq. 1), listed as ritlecitinib): ≤ 0.1; Fraction Inhibited ([3]; listed as ritlecitinib): ≤ 0.1; Imax,inlet,u ([4]; estimated maximal free hepatic portal concentration, ritlecitinib 200 mg): 31.7 µM; [I]2 ([4]; oral molar dose of ritlecitinib (200 mg)/250 mL): 2803 µM |
